The values below come from the supplement of paper PMC6411743.

Compound in assay [1]: Nc1ncnc2c1ncn2[C@@H]1O[C@H](COP(=O)(O)OP(=O)(O)OP(=O)(O)O)[C@@H](O)[C@H]1O [adenosine triphosphate]
Description: pEC50 of ATP-induced change in protein thermal stability (2D-TPP). In outline:
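In three independent experiments, Jurkat crude lysate received five concentrations including vehicle for 10 min at room temperature before a 3 min heating step at 12 temperatures (42–63.9 °C). NP40 and benzonase were then added for 60 min at 4 °C, and soluble protein after ultracentrifugation was read out by TMT LC-MS/MS as median-normalised fold changes against vehicle at each temperature. Dose-response fits per replicate over adjacent temperature pairs yielded pEC50, with hits called by permutation-based false discovery rate control.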

Compound in assay [2]: Nc1nc2c(ncn2[C@@H]2O[C@H](COP(=O)(O)OP(=O)(O)OP(=O)(O)O)[C@@H](O)[C@H]2O)c(=O)[nH]1 [guanosine triphosphate]
Description: pEC50 of GTP-induced change in protein thermal stability (2D-TPP). Here is the method: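 2D thermal proteome profiling in Jurkat crude lysate. Lysate was treated 10 min at room temperature with Na-GTP (0, 0.001, 0.01, 0.1, 0.5 mM), heated to 12 temperatures (42-63.9 °C) for 3 min, and soluble protein was quantified by TMT10 LC-MS/MS. pEC50 is the median over replicates of dose-response fits (FDR-controlled hits).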
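Throughout, for pEC50 of ATP-induced change in protein thermal stability (2D-TPP): lysate dosed with Na-ATP at 0 0.005 0.05 0.5 and 2 mM.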

Chain of UniProt Q9Y679 (Q9Y679 whole entry): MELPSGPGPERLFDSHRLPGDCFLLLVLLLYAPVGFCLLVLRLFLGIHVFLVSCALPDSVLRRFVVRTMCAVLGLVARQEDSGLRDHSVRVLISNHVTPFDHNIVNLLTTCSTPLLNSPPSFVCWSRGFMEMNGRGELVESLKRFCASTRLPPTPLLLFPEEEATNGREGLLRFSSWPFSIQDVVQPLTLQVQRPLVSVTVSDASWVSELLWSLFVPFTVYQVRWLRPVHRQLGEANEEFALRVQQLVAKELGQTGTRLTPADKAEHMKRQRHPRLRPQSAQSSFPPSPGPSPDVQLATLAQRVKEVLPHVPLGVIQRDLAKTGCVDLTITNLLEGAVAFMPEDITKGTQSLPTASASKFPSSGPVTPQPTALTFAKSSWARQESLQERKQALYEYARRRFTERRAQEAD
Chain of UniProt P27707 (P27707 whole entry, looked up): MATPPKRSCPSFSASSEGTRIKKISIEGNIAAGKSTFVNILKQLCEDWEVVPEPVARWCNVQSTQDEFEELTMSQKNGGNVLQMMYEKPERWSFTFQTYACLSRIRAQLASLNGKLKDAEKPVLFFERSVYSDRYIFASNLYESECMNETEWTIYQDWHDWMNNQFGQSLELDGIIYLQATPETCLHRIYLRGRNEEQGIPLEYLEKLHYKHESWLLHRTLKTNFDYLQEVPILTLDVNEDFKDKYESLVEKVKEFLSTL
Chain of UniProt Q9Y276 (Q9Y276 whole entry): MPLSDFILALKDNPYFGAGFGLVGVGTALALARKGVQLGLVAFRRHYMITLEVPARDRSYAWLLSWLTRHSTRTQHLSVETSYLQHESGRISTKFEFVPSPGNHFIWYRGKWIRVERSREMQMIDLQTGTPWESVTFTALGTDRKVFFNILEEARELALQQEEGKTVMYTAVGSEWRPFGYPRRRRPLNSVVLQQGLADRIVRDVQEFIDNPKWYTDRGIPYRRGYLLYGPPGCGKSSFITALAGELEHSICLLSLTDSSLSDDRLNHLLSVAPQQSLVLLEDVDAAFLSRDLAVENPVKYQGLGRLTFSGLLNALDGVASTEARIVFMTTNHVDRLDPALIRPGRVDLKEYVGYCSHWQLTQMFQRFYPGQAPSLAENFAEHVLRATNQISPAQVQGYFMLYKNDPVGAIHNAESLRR
Chain of UniProt P51570 (P51570 whole entry): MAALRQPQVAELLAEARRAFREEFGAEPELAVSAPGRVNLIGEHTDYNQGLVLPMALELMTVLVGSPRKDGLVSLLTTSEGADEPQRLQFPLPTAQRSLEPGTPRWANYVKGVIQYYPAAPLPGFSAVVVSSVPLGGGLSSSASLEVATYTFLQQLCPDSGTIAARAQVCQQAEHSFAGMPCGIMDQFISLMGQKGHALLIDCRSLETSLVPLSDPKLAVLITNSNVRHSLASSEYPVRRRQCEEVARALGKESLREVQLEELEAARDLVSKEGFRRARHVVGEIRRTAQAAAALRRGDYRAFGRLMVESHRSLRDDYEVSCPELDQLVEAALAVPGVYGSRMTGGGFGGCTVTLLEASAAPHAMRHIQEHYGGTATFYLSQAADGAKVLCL
Chain of UniProt P67870 (P67870 whole entry): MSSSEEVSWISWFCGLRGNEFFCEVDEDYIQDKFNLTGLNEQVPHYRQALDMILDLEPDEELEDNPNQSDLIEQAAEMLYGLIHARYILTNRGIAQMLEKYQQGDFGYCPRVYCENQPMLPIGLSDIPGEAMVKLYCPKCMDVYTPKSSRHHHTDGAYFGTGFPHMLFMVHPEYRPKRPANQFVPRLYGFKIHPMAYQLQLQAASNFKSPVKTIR
Chain of UniProt P23919 (P23919 whole entry): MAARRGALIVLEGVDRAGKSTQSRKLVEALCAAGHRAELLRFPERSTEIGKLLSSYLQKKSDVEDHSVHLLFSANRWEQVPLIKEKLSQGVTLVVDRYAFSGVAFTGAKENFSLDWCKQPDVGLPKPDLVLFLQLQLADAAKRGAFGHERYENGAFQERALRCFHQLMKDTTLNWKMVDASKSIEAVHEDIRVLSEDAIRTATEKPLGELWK
Chain of UniProt Q8WVX9 (Q8WVX9 whole entry): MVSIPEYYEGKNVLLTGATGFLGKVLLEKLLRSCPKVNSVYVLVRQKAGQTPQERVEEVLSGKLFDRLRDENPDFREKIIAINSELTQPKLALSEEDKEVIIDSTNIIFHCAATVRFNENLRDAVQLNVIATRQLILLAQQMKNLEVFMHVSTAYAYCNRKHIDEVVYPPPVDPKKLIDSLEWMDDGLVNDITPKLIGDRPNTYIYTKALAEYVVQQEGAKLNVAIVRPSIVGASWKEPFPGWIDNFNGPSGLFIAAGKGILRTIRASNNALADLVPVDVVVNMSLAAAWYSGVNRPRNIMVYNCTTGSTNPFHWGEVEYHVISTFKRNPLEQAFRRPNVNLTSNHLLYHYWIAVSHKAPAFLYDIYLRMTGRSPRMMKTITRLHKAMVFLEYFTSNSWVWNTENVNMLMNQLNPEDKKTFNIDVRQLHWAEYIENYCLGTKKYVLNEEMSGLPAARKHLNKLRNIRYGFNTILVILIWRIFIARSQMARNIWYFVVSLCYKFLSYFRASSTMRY
Chain of UniProt Q8NE71 (Q8NE71 whole entry): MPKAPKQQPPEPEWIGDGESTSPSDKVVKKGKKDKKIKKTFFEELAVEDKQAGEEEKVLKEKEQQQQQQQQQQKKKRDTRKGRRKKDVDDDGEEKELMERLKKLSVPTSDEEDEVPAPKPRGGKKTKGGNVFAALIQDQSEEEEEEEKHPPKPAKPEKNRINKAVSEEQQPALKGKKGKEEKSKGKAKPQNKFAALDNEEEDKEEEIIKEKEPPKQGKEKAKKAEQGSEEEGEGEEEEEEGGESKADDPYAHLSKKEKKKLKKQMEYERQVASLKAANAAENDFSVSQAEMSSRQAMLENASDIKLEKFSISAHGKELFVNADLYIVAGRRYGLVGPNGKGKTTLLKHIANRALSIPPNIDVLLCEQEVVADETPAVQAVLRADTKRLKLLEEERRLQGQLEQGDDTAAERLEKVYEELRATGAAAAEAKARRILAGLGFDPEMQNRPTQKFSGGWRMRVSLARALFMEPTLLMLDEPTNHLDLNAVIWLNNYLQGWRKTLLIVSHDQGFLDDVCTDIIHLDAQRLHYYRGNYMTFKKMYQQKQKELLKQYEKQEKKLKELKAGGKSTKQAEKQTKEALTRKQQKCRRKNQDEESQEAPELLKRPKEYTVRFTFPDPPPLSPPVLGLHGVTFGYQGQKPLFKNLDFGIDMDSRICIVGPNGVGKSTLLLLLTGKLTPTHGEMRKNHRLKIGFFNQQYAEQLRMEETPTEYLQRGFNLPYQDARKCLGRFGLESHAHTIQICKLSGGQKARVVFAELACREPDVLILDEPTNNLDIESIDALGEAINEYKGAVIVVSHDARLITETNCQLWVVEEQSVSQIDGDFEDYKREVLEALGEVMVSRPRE
Chain of UniProt Q6P9H5 (Q6P9H5 whole entry): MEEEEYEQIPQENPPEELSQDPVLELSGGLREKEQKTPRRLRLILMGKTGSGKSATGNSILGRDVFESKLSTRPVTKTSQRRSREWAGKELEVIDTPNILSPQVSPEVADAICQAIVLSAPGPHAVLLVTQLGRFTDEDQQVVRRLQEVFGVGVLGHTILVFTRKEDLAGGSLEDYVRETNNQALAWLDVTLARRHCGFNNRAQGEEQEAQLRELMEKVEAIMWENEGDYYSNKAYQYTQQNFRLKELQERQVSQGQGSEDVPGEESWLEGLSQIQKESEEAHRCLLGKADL
Chain of UniProt P14868 (P14868 whole entry): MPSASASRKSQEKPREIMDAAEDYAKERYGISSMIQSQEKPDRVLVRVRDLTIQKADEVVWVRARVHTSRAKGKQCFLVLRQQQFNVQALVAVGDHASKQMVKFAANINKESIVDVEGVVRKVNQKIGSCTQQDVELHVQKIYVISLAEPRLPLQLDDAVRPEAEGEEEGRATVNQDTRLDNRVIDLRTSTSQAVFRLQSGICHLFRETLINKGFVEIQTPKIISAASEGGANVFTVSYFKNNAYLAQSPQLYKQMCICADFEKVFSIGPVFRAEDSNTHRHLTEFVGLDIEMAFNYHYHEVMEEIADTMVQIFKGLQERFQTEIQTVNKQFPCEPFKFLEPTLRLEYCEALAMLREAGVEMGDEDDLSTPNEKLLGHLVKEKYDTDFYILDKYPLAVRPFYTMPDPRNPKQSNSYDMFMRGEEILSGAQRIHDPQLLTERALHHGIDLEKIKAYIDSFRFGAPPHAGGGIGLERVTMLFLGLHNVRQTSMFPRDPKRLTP
Chain of UniProt P41240 (P41240 whole entry, looked up): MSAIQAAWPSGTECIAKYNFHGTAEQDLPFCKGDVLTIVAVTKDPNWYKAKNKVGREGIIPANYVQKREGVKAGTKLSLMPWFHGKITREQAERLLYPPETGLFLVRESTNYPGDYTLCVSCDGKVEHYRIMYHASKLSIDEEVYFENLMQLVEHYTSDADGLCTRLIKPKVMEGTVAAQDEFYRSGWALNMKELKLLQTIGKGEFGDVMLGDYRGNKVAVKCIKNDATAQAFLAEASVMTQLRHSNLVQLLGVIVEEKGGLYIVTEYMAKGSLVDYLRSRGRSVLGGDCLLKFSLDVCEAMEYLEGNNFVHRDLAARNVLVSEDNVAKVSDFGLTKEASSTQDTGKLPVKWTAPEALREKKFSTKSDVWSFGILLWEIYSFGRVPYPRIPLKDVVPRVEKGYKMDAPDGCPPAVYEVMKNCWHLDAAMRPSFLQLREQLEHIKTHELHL
Chain of UniProt Q96IJ6 (Q96IJ6 whole entry): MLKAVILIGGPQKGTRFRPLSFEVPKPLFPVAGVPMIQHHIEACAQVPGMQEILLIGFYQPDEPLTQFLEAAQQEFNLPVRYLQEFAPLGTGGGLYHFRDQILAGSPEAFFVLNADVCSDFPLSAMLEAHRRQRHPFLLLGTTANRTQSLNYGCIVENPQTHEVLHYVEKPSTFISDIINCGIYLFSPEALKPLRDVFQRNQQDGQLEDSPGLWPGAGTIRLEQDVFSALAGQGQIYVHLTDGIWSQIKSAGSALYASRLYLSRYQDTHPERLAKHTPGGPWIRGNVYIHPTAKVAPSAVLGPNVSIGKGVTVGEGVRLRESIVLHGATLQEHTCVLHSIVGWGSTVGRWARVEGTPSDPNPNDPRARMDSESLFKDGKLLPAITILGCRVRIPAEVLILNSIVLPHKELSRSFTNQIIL

For “ABCB7 (effect direction: stabilized) (UniProt O75027)”, the pEC50 (in general, −log10 of the EC50, conventionally taken in molar units) stood at 3.49 in assay [1] and 3.82 in assay [2].

For the target “ABCC4 (effect direction: stabilized) (UniProt O15439)”, the values for the pEC50 in assay [1] and in assay [2] were 3.41 and 3.94, respectively.

Regarding “ABCF1 (effect direction: stabilized) (UniProt Q8NE71)”, the pEC50 in assay [1] is 4.2; in assay [2], 3.96.

As to “ACSL3 (effect direction: stabilized) (UniProt O95573)”, the pEC50 in assay [1] was found to be 3.91; in assay [2] it was 3.9.

Take “ACSS1 (effect direction: stabilized) (UniProt Q9NUB1)”: the pEC50 was 3.42 in assay [1] and less than 3.3 in assay [2].

In the case of “ACTR3 (effect direction: stabilized) (UniProt P61158)”, the pEC50 in assay [1] turned out to be 4.25; in assay [2], 3.93.

Take “AFG3L2 (effect direction: stabilized) (UniProt Q9Y4W6)”: the pEC50 in assay [1] came to 4.18; in assay [2], 3.89.

In the case of “AK3 (effect direction: stabilized) (UniProt Q9UIJ7)”, the pEC50 in assay [1] turned out to be 3.22; in assay [2], 3.46.

For “ANP32B (effect direction: stabilized) (UniProt Q92688)”, the pEC50 was found to be 2.89 in assay [1] and 3.75 in assay [2].

Regarding “ARL2 (effect direction: stabilized) (UniProt P36404)”, the pEC50 was 3.3 in assay [1] and 4.15 in assay [2].

“ARPC1B (effect direction: stabilized) (UniProt O15143)”: the negative-log EC50 (pEC50) in assay [1] came to 4.25; in assay [2] it was 3.83.

“ARPC2 (effect direction: stabilized) (UniProt O15144)”: the pEC50 is 4.06 in assay [1] and 3.83 in assay [2].

In the case of “ATL3 (effect direction: stabilized) (UniProt Q6DD88)”, the figures for the pEC50 in assay [1] and in assay [2] were 3.19 and 3.44, respectively.

Take “ATP2A2 (effect direction: stabilized) (UniProt P16615)”: the pEC50 was 3.33 in assay [1] and 4.31 in assay [2].

Turning to “ATP13A1 (effect direction: stabilized) (UniProt Q9HD20)”, the pEC50 in assay [1] amounted to 4.22; in assay [2], 4.37.

As to “AUP1 (effect direction: stabilized) (UniProt Q9Y679)”, the figures for the pEC50 in assay [1] and in assay [2] were 3.27 and 3.82, respectively.

Consider “BCS1L (effect direction: stabilized) (UniProt Q9Y276)”, for which the pEC50 was 4.07 in assay [1] and less than 3.3 in assay [2].

On to “BPNT1 (effect direction: destabilized) (UniProt O95861)”, for which the pEC50 was less than 2.7 in assay [1] and 3.59 in assay [2].

In the case of “CAMK4 (effect direction: stabilized) (UniProt Q16566)”, the figures for the pEC50 in assay [1] and in assay [2] were 3.88 and 3.77, respectively.

As to “CCDC117 (effect direction: stabilized) (UniProt Q8IWD4)”, the pEC50 was 3.47 in assay [1] and 3.46 in assay [2].

As for “CCT2 (effect direction: stabilized) (UniProt P78371)”, the pEC50 in assay [1] worked out at 4.34; in assay [2], 3.56.

Regarding “CCT3 (effect direction: stabilized) (UniProt P49368)”, the pEC50 in assay [1] came to 4.53; in assay [2], 3.62.

For the target “CCT4 (effect direction: stabilized) (UniProt P50991)”, the pEC50 was 3.07 in assay [1] and 3.65 in assay [2].

As for “CLPB (effect direction: stabilized) (UniProt Q9H078)”, the negative logarithm of the EC50 (pEC50) in assay [1] was 4.02; in assay [2], 4.19.

“CNP (effect direction: stabilized) (UniProt P09543)”: the pEC50 is 3.58 in assay [1] and 3.91 in assay [2].

In the case of “CSK (effect direction: stabilized) (UniProt P41240)”, the pEC50 in assay [1] turned out to be 3.56; in assay [2], 4.3.

“CSNK2B (effect direction: stabilized) (UniProt P67870)”: the pEC50 in assay [1] was found to be 3.84; in assay [2], 4.2.

Consider “DARS (effect direction: stabilized) (UniProt P14868)”, for which the pEC50 in assay [1] amounted to 3.92; in assay [2], 3.9.

On to “DBN1 (effect direction: destabilized) (UniProt Q16643)”, for which the pEC50 was 3.27 in assay [1] and 3.79 in assay [2].

Consider “DCK (effect direction: stabilized) (UniProt P27707)”, for which the pEC50 was 3.19 in assay [1] and 3.73 in assay [2].

Take “DDX46 (effect direction: stabilized) (UniProt Q7L014)”: the pEC50 in assay [1] amounted to 3.56; in assay [2], 3.86.

On to “DGKA (effect direction: stabilized) (UniProt P23743)”, for which the pEC50 in assay [1] worked out at 3.3; in assay [2], 3.72.

Take “DHX15 (effect direction: stabilized) (UniProt O43143)”: the figures for the pEC50 in assay [1] and in assay [2] were 3.9 and 3.93, respectively.

As for “DHX38 (effect direction: stabilized) (UniProt Q92620)”, the pEC50 was found to be 4.09 in assay [1] and 3.83 in assay [2].

Regarding “DNM1L (effect direction: stabilized) (UniProt O00429)”, the results for the pEC50 in assay [1] and in assay [2] were 3.38 and 3.83, respectively.

With “DRG2 (effect direction: stabilized) (UniProt P55039)”, the pEC50 in assay [1] came to 3.7; in assay [2] it was 4.32.

In the case of “DTYMK (effect direction: stabilized) (UniProt P23919)”, the pEC50 in assay [1] turned out to be 4.17; in assay [2], 4.06.

For the target “DYNC1LI1 (effect direction: stabilized) (UniProt Q9Y6G9)”, the pEC50 in assay [1] is 3.71; in assay [2], 3.6.

With “DYNC1LI2 (effect direction: stabilized) (UniProt O43237)”, the pEC50 is 3.69 in assay [1] and 4.16 in assay [2].

Take “EEF1A1 (effect direction: stabilized) (UniProt P68104)”: the pEC50 came to 4.11 in assay [1] and 4.26 in assay [2].

With “EEF2 (effect direction: stabilized) (UniProt P13639)”, the pEC50 stood at 3.58 in assay [1] and 3.94 in assay [2].

As to “EFTUD2 (effect direction: stabilized) (UniProt Q15029)”, the pEC50 in assay [1] came out at 2.76; in assay [2], 3.61.

Regarding “EHD1 (effect direction: stabilized) (UniProt Q9H4M9)”, the pEC50 in assay [1] worked out at 3.88; in assay [2], 4.34.

As to “EIF2B4 (effect direction: stabilized) (UniProt Q9UI10)”, the pEC50 in assay [1] was determined as 3.65; in assay [2] it was 3.73.

For “EIF2B5 (effect direction: stabilized) (UniProt Q13144)”, the results for the negative-log EC50 (pEC50) in assay [1] and in assay [2] were 3.77 and 4.12, respectively.

For “FAR1 (effect direction: stabilized) (UniProt Q8WVX9)”, the values for the pEC50 in assay [1] and in assay [2] were 3.36 and 3.59, respectively.

Consider “GALK1 (effect direction: stabilized) (UniProt P51570)”, for which the pEC50 was 4.02 in assay [1] and 4.06 in assay [2].

As to “GIMAP6 (effect direction: stabilized) (UniProt Q6P9H5)”, the pEC50 in assay [1] was determined as 4.24; in assay [2] it was 3.81.

Turning to “GMDS (effect direction: stabilized) (UniProt O60547)”, the pEC50 in assay [1] was 2.72; in assay [2], 4.02.

“GMPPA (effect direction: stabilized) (UniProt Q96IJ6)”: the figures for the pEC50 in assay [1] and in assay [2] were 3.08 and 3.36, respectively.

For the target “UniProt P63000 (effect direction: stabilized)”, in assay [2], the pEC50 stood at 3.84.

As for “UniProt P78527 (effect direction: stabilized)”, in assay [2], the negative-log EC50 (pEC50) is 3.93.

For the target “UniProt P84085 (effect direction: stabilized)”, the pEC50 in assay [2] amounted to 4.13.

As for “UniProt P84095 (effect direction: stabilized)”, the pEC50 in assay [2] was 3.83.

As for “UniProt P84103 (effect direction: stabilized)”, the pEC50 in assay [2] was determined as 3.94.

With “UniProt Q5JTY5 (effect direction: stabilized)”, the pEC50 in assay [2] amounted to 4.22.

As for “UniProt Q9BSD7 (effect direction: stabilized)”, the negative logarithm of the EC50 (pEC50) in assay [2] came out at 3.96.

For the target “UniProt Q9NZ01 (effect direction: stabilized)”, the pEC50 in assay [2] amounted to 3.66.

As to “UniProt Q9Y3L5 (effect direction: stabilized)”, the pEC50 in assay [2] came to 3.83.

For “UniProt Q86Y56 (effect direction: stabilized)”, the pEC50 in assay [2] was 4.09.

For the target “UniProt Q08170 (effect direction: stabilized)”, in assay [2], the negative logarithm of the EC50 (pEC50) was 3.79.

As to “UniProt Q13243 (effect direction: stabilized)”, the pEC50 in assay [2] worked out at 3.6.
